Target: CheS3
Assay: microscale thermophoresis
Format: binding, Rhodospirillum centenum
Conditions: fluorescently labelled CheS3 (Blue-NHS, 100 nM); non-hydrolysable ATP analogue

Kd: 112 nM
SMILES: Nc1ncnc2c1ncn2[C@@H]1O[C@H](COP(=O)(O)OP(=O)(O)OP(O)(O)=S)[C@@H](O)[C@H]1O [ATPγS]

— article PMC4436063 (mBio, 2015)
